ChEMBL document CHEMBL4507261, “Data for DCP probe A-192621” (2021)

What was measured:
[1] = molecular target: Phosphatidylinositol 4-phosphate 5-kinase type-1 gamma (Homo sapiens) (UniProt O60331); settings: Compound concentration 1000.0 nM
[2] = molecular target: Mitogen-activated protein kinase kinase kinase 19 (Homo sapiens) (UniProt Q56UN5); settings: Compound concentration 1000.0 nM
[3] = molecular target: Cyclin-dependent kinase 15 (Homo sapiens) (UniProt Q96Q40); settings: Compound concentration 1000.0 nM
[4] = test system: eIF-2-alpha kinase GCN2 (Homo sapiens), Q9P2K8 [S808G]; settings: Compound concentration 1000.0 nM
[5] = molecular target: Phosphorylase b kinase regulatory subunit alpha, liver isoform (Homo sapiens) (UniProt P46019); settings: Compound concentration 1000.0 nM
[6] = molecular target: Calcium/calmodulin-dependent protein kinase type IV (Homo sapiens) (UniProt Q16566); settings: Compound concentration 1000.0 nM
[7] = molecular target: Mitogen-activated protein kinase kinase kinase 11 (Homo sapiens) (UniProt Q16584); settings: Compound concentration 1000.0 nM
[8] = test system: Receptor-type tyrosine-protein kinase FLT3 (Homo sapiens), P36888 [D835V]; settings: Compound concentration 1000.0 nM
[9] = molecular target: AP2-associated protein kinase 1 (Homo sapiens) (UniProt Q2M2I8); settings: Compound concentration 1000.0 nM
[10] = molecular target: Homeodomain-interacting protein kinase 3 (Homo sapiens) (UniProt Q9H422); settings: Compound concentration 1000.0 nM
[11] = molecular target: cAMP-dependent protein kinase catalytic subunit beta (Homo sapiens) (UniProt P22694); settings: Compound concentration 1000.0 nM
[12] = molecular target: Ephrin type-A receptor 3 (Homo sapiens) (UniProt P29320); settings: Compound concentration 1000.0 nM
[13] = molecular target: Serine/threonine-protein kinase D3 (Homo sapiens) (UniProt O94806); settings: Compound concentration 1000.0 nM
[14] = molecular target: MAP kinase-activated protein kinase 5 (Homo sapiens) (UniProt Q8IW41); settings: Compound concentration 1000.0 nM
[15] = molecular target: SNF-related serine/threonine-protein kinase (Homo sapiens) (UniProt Q9NRH2); settings: Compound concentration 1000.0 nM
[16] = molecular target: Serine/threonine-protein kinase MRCK beta (Homo sapiens) (UniProt Q9Y5S2); settings: Compound concentration 1000.0 nM
[17] = molecular target: Serine/threonine-protein kinase WNK3 (Homo sapiens) (UniProt Q9BYP7); settings: Compound concentration 1000.0 nM
[18] = molecular target: Uncharacterized serine/threonine-protein kinase SBK3 (Homo sapiens) (UniProt P0C264); settings: Compound concentration 1000.0 nM
[19] = molecular target: Serine/threonine-protein kinase PknB (Mycobacterium tuberculosis) (UniProt P9WI81); settings: Compound concentration 1000.0 nM
[20] = molecular target: Mitogen-activated protein kinase kinase kinase kinase 3 (Homo sapiens) (UniProt Q8IVH8); settings: Compound concentration 1000.0 nM
[21] = molecular target: LIM domain kinase 1 (Homo sapiens) (UniProt P53667); settings: Compound concentration 1000.0 nM
[22] = molecular target: Dual specificity protein kinase CLK2 (Homo sapiens) (UniProt P49760); settings: Compound concentration 1000.0 nM
[23] = molecular target: Myosin light chain kinase 2, skeletal/cardiac muscle (Homo sapiens) (UniProt Q9H1R3); settings: Compound concentration 1000.0 nM
[24] = molecular target: Myosin light chain kinase family member 4 (Homo sapiens) (UniProt Q86YV6); settings: Compound concentration 1000.0 nM
[25] = molecular target: Sodium-dependent serotonin transporter (Homo sapiens) (UniProt P31645); assay: 5-HT transporter (h) Eurofins-Cerep binding assay; design: ligand concentration 2 nM; settings: filed as antagonist, Compound concentration 10.0 uM
[26] = molecular target: Leucine-rich repeat serine/threonine-protein kinase 2 (Homo sapiens) (UniProt Q5S007); settings: Compound concentration 1000.0 nM
[27] = molecular target: Tyrosine-protein kinase Fer (Homo sapiens) (UniProt P16591); settings: Compound concentration 1000.0 nM
[28] = molecular target: Serine/threonine-protein kinase tousled-like 2 (Homo sapiens) (UniProt Q86UE8); settings: Compound concentration 1000.0 nM
[29] = molecular target: Mitogen-activated protein kinase kinase kinase 7 (Homo sapiens) (UniProt O43318); settings: Compound concentration 1000.0 nM
[30] = molecular target: B2 bradykinin receptor (Homo sapiens) (UniProt P30411); assay: B2 (h) Eurofins-Cerep binding assay; design: ligand concentration 0.3 nM; settings: filed as agonist, Compound concentration 10.0 uM
[31] = molecular target: Receptor-interacting serine/threonine-protein kinase 2 (Homo sapiens) (UniProt O43353); settings: Compound concentration 1000.0 nM
[32] = molecular target: Serine/threonine-protein kinase MAK (Homo sapiens) (UniProt P20794); settings: Compound concentration 1000.0 nM
[33] = molecular target: Serine/threonine-protein kinase 32A (Homo sapiens) (UniProt Q8WU08); settings: Compound concentration 1000.0 nM
[34] = test system: Hepatocyte growth factor receptor (Homo sapiens), P08581 [Y1235D]; settings: Compound concentration 1000.0 nM
[35] = molecular target: cGMP-dependent protein kinase 2 (Homo sapiens) (UniProt Q13237); settings: Compound concentration 1000.0 nM
[36] = molecular target: Serine/threonine-protein kinase Nek6 (Homo sapiens) (UniProt Q9HC98); settings: Compound concentration 1000.0 nM
[37] = molecular target: Mitogen-activated protein kinase kinase kinase 2 (Homo sapiens) (UniProt Q9Y2U5); settings: Compound concentration 1000.0 nM
[38] = molecular target: Serine/threonine-protein kinase 35 (Homo sapiens) (UniProt Q8TDR2); settings: Compound concentration 1000.0 nM
[39] = molecular target: Tyrosine-protein kinase JAK1 (Homo sapiens) (UniProt P23458); settings: Compound concentration 1000.0 nM
[40] = molecular target: Ephrin type-A receptor 7 (Homo sapiens) (UniProt Q15375); settings: Compound concentration 1000.0 nM
[41] = molecular target: Cyclin-dependent kinase 19 (Homo sapiens) (UniProt Q9BWU1); settings: Compound concentration 1000.0 nM
[42] = molecular target: Rho-associated protein kinase 1 (Homo sapiens) (UniProt Q13464); settings: Compound concentration 1000.0 nM
[43] = molecular target: Interleukin-1 receptor-associated kinase 1 (Homo sapiens) (UniProt P51617); settings: Compound concentration 1000.0 nM
[44] = test system: Epidermal growth factor receptor (Homo sapiens), P00533 [L861Q]; settings: Compound concentration 1000.0 nM
[45] = molecular target: Cyclin-dependent kinase-like 3 (Homo sapiens) (UniProt Q8IVW4); settings: Compound concentration 1000.0 nM

Mitogen-activated protein kinase kinase kinase kinase 3 (Homo sapiens), sequence (Q8IVH8 whole entry, the tested form may be a part): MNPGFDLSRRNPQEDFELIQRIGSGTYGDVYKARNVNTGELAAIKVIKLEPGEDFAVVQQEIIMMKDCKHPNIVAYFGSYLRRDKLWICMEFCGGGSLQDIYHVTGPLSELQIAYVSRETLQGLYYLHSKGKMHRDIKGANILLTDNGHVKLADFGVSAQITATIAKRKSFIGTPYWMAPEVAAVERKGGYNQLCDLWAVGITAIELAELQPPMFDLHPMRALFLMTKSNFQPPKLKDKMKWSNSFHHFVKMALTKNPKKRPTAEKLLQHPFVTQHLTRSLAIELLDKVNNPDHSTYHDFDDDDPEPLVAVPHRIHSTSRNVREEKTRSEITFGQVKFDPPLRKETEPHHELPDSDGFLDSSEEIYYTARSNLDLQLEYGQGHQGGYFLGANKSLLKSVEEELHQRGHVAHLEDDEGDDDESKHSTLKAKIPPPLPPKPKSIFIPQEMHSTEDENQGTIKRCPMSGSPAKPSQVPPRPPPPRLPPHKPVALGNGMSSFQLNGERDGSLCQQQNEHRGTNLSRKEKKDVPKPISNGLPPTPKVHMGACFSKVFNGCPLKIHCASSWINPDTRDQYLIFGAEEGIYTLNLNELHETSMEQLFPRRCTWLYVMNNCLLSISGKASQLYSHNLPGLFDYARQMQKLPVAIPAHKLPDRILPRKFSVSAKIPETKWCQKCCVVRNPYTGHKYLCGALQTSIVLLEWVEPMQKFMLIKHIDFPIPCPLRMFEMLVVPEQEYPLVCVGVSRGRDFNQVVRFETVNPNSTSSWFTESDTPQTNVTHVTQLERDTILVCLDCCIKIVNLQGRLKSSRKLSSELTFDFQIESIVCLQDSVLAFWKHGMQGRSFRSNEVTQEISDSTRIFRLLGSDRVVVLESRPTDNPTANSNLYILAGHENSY
Serine/threonine-protein kinase PknB (Mycobacterium tuberculosis), sequence (P9WI81 whole entry): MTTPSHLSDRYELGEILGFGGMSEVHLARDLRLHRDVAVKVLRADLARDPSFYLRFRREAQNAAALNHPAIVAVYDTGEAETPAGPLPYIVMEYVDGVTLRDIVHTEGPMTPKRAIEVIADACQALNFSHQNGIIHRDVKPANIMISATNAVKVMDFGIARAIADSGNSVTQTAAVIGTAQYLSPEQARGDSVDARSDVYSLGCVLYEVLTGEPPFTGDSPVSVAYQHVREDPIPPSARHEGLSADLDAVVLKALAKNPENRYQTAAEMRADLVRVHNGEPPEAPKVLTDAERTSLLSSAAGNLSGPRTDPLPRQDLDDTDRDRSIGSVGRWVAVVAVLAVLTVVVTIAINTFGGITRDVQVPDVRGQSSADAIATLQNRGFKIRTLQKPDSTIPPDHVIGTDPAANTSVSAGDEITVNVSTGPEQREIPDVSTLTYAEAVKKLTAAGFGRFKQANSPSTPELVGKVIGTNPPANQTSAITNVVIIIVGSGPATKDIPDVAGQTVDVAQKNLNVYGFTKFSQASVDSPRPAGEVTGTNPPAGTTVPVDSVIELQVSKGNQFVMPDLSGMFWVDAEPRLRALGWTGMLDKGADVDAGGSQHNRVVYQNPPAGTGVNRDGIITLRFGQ
Phosphatidylinositol 4-phosphate 5-kinase type-1 gamma (Homo sapiens), sequence (O60331 whole entry): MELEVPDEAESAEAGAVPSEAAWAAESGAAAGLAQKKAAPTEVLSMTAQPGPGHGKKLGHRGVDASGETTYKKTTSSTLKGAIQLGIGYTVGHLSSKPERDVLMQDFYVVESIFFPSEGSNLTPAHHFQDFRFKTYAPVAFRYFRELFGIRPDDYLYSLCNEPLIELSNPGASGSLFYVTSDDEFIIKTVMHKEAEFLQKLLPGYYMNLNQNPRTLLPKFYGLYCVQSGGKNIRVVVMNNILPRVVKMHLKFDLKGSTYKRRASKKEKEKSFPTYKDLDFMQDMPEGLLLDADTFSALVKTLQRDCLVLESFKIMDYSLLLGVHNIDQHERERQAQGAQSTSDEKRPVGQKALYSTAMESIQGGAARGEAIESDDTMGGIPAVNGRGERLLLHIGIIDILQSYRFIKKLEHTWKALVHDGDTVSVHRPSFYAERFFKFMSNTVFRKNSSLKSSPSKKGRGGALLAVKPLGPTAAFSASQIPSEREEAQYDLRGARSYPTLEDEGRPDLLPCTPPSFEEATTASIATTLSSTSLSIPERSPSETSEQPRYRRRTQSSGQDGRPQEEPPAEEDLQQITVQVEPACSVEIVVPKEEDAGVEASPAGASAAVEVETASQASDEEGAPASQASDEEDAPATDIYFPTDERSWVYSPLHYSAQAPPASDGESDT
Sodium-dependent serotonin transporter (Homo sapiens), sequence (P31645 whole entry, looked up): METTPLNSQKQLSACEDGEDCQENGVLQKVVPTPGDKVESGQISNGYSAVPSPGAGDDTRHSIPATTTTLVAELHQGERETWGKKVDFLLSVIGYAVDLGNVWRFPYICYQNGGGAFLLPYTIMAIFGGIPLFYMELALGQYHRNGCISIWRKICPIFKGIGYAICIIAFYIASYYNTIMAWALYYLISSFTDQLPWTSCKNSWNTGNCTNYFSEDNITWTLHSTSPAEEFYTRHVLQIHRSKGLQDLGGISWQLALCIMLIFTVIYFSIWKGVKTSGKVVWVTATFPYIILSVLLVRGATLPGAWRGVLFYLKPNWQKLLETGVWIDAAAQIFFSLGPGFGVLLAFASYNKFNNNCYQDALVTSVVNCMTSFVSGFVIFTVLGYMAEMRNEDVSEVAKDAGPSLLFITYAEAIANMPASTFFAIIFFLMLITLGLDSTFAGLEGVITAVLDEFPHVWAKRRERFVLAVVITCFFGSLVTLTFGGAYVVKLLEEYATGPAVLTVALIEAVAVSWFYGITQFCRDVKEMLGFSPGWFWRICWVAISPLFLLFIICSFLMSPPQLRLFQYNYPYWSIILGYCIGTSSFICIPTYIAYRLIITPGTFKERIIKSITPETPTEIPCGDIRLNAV
Interleukin-1 receptor-associated kinase 1 (Homo sapiens), sequence (P51617 whole entry, looked up): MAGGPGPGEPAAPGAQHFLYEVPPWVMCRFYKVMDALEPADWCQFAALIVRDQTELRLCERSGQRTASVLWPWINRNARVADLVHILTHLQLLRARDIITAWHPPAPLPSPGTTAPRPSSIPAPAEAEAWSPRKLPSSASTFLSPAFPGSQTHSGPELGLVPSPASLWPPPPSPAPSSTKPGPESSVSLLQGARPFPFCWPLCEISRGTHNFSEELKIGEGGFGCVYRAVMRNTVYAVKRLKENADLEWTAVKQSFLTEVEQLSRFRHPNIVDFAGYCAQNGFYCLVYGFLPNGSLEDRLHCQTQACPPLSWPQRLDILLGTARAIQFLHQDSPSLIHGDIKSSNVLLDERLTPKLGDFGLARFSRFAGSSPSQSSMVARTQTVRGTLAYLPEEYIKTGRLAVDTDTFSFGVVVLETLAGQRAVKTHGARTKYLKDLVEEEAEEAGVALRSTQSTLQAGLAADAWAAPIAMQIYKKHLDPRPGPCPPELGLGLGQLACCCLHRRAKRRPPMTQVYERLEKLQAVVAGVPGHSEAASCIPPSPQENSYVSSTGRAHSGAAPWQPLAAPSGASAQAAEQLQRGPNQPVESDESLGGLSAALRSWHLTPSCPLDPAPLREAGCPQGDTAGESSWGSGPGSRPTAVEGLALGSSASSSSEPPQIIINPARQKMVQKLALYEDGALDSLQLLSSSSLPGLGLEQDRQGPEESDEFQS
Serine/threonine-protein kinase tousled-like 2 (Homo sapiens), sequence (Q86UE8 whole entry, looked up): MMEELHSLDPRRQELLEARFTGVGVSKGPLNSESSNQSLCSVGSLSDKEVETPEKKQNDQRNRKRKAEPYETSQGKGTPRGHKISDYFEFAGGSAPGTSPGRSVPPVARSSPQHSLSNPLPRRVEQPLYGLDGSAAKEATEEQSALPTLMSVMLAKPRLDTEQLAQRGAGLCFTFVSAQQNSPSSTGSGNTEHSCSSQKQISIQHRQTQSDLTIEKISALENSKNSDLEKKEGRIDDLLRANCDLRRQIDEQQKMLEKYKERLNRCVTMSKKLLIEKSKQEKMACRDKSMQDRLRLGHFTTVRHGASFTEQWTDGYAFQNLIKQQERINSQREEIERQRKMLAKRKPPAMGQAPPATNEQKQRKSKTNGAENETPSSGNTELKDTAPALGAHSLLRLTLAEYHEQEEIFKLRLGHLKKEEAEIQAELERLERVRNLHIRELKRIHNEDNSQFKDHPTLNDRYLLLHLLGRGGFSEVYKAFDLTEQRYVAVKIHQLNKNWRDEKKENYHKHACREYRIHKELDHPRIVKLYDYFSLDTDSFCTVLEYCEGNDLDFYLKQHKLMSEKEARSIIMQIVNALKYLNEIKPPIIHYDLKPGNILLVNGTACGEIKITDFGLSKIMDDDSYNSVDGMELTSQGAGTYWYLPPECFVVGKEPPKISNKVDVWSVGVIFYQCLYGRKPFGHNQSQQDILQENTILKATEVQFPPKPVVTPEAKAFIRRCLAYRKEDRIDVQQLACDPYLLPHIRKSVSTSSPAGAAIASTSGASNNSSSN
Serine/threonine-protein kinase MAK (Homo sapiens), sequence (P20794 whole entry): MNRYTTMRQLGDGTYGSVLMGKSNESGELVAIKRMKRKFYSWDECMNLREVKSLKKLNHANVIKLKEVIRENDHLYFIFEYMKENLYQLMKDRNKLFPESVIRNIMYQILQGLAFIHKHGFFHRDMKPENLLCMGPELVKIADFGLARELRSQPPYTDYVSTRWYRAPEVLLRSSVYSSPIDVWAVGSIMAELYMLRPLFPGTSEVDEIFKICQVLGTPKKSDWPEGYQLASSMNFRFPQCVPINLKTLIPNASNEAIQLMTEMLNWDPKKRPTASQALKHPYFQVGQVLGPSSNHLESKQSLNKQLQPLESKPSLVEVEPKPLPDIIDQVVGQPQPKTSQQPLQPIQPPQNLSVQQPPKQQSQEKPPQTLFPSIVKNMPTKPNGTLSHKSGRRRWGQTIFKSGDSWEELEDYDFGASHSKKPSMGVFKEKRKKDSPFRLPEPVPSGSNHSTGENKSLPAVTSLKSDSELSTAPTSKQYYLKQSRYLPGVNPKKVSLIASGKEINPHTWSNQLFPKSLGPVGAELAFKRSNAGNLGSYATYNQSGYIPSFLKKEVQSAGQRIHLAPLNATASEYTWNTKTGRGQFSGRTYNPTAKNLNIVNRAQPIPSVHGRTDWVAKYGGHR

`CCCOc1ccc([C@H]2[C@H](C(=O)O)[C@@H](c3ccc4c(c3)OCO4)CN2CC(=O)Nc2c(CC)cccc2CC)cc1` [A-192621] gave a residual activity [1] of 100%, a residual activity [2] of 77% and a residual activity [3] of 94%. It also gave a residual activity [4] of 90%, a residual activity [5] of 86% and a residual activity [6] of 89%. It also gave a residual activity [7] of 100%, a residual activity [8] of 88% and a residual activity [9] of 95%. The residual activity [10] was 74%, the residual activity [11] was 87% and the residual activity [12] was 86%. The residual activity [13] was 93%, the residual activity [14] was 65% and the residual activity [15] was 84%. It also gave a residual activity [16] of 87%, a residual activity [17] of 90% and a residual activity [18] of 94%. The residual activity [19] was 78%, the residual activity [20] was 85% and the residual activity [21] was 100%. The residual activity [22] was 91%, the residual activity [23] was 91% and the residual activity [24] was 75%. For the same compound, the % Inhibition of Control Specific Binding (Mean n=2) [25] was -7.7%, the residual activity [26] was 79% and the residual activity [27] was 100%. For the same compound, the residual activity [28] was 94%, the residual activity [29] was 100% and the % Inhibition of Control Specific Binding (Mean n=2) [30] was -8.6%. For the same compound, the residual activity [31] was 100%, the residual activity [32] was 97% and the residual activity [33] was 93%. It also gave a residual activity [34] of 100%, a residual activity [35] of 82% and a residual activity [36] of 96%. For the same compound, the residual activity [37] was 82%, the residual activity [38] was 92% and the residual activity [39] was 94%. The residual activity [40] was 98%, the residual activity [41] was 95% and the residual activity [42] was 65%. The residual activity [43] was 67%, the residual activity [44] was 100% and the residual activity [45] was 92%.

For `CCCOc1ccc([C@@H]2[C@@H](C(=O)O)[C@H](c3ccc4c(c3)OCO4)CN2CC(=O)Nc2c(CC)cccc2CC)cc1` [A-1806262], the residual activity [1] was 100%, the residual activity [2] was 93% and the residual activity [3] was 93%. It also gave a residual activity [4] of 100%, a residual activity [5] of 74% and a residual activity [6] of 96%. It also gave a residual activity [7] of 100%, a residual activity [8] of 62% and a residual activity [9] of 90%. The residual activity [10] was 85%, the residual activity [11] was 100% and the residual activity [12] was 99%. The residual activity [13] was 86%, the residual activity [14] was 87% and the residual activity [15] was 87%. For the same compound, the residual activity [16] was 97%, the residual activity [17] was 94% and the residual activity [18] was 85%. The residual activity [19] was 98%, the residual activity [20] was 100% and the residual activity [21] was 90%. For the same compound, the residual activity [22] was 100%, the residual activity [23] was 93% and the residual activity [24] was 100%. It also gave a % Inhibition of Control Specific Binding (Mean n=2) [25] of 5.2%, a residual activity [26] of 84% and a residual activity [27] of 100%. It also gave a residual activity [28] of 100%, a residual activity [29] of 97% and a % Inhibition of Control Specific Binding (Mean n=2) [30] of -12.3%. It also gave a residual activity [31] of 84%, a residual activity [32] of 93% and a residual activity [33] of 85%. For the same compound, the residual activity [34] was 99%, the residual activity [35] was 83% and the residual activity [36] was 92%. The residual activity [37] was 100%, the residual activity [38] was 98% and the residual activity [39] was 88%. The residual activity [40] was 92%, the residual activity [41] was 89% and the residual activity [42] was 81%. For the same compound, the residual activity [43] was 96%, the residual activity [44] was 100% and the residual activity [45] was 95%.
